System: primary rat mixed cortical cells
Assay: In vitro myelination assay (MBP positive myelin strands, fold myelin pixels above background)
Assay type: cell-based
Conditions: Rattus norvegicus, relative to baseline of no added compound, read-out: Fold myelin pixels above background; for fold induction at 1 µM: 1.0 μM compound; for fold induction at 10 µM: 10.0 μM compound
Summary of the method: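 P1 rat cortical cells (neurons, OPCs, oligodendrocytes, astrocytes, microglia) were cultured 14 days at 37 °C with compound, with half-medium changes containing 1× compound on days 6 and 10. Fixed cells were immunostained for MBP and imaged at 10×. Total MBP myelin pixels per well were expressed as fold above no-compound baseline at 1.0 μM and 10.0 μM.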

Fc1cc(Cl)cc(-n2cnc(Nc3cc(C4CC4)cc(N4CCN(C5COC5)CC4)c3)n2)c1 [Compound 400, 1-(3-chloro-5-fluoro-phenyl)-N-[3-cyclopropyl-5-[4-(oxetan-3-yl)piperazin-1-yl]phenyl]-1,2,4-triazol-3-amine]
fold induction at 1 µM: 1000 to 10000
fold induction at 10 µM: ≤ 1

CCc1cc(Nc2ncn(-c3cncc(C)n3)n2)cc(N2CCN(C3COC3)CC2)c1 [Compound 401, N-[3-ethyl-5-[4-(oxetan-3-yl)piperazin-1-yl]phenyl]-1-(6-methylpyrazin-2-yl)-1,2,4-triazol-3-amine]
fold induction at 1 µM: 100 to 1000
fold induction at 10 µM: 100 to 1000

CC(=O)N1CCC(Nc2cc(C)cc(Nc3ncn(-c4ccccc4)n3)c2)CC1 [Compound 402, 1-[4-[3-methyl-5-[(1-phenyl-1,2,4-triazol-3-yl)amino]anilino]-1-piperidyl]ethanone]
fold induction at 1 µM: 100 to 1000
fold induction at 10 µM: 10 to 100

Cc1cc(Nc2ncn(-c3ccnc(F)c3)n2)cc(N2CCOCC2)c1 [Compound 403, 1-(2-fluoro-4-pyridyl)-N-(3-methyl-5-morpholino-phenyl)-1,2,4-triazol-3-amine]
fold induction at 1 µM: 1000 to 10000
fold induction at 10 µM: 10 to 100

Cc1cc(Nc2ncn(-c3ccccn3)n2)cc(C2COC2)c1 [Compound 404, N-[3-methyl-5-(oxetan-3-yl)phenyl]-1-(2-pyridyl)-1,2,4-triazol-3-amine]
fold induction at 1 µM: 100 to 1000
fold induction at 10 µM: 100 to 1000

Fc1cc(F)cc(-n2cnc(Nc3cc(C4CC4)nc(N4CCOCC4)c3)n2)c1 [Compound 405, 2-cyclopropyl-N-[1-(3,5-difluorophenyl)-1,2,4-triazol-3-yl]-6-morpholino-pyridin-4-amine]
fold induction at 1 µM: 100 to 1000
fold induction at 10 µM: 1000 to 10000

Fc1cc(F)cc(-n2cnc(Nc3cc(C4CCOCC4)nc(C4CC4)c3)n2)c1 [Compound 407, 2-cyclopropyl-N-[1-(3,5-difluorophenyl)-1,2,4-triazol-3-yl]-6-tetrahydropyran-4-yl-pyridin-4-amine]
fold induction at 1 µM: 1000 to 10000
fold induction at 10 µM: ≤ 1

Cc1cc(Nc2ncn(-c3cc(F)cc(F)c3)n2)cc(C2CCCN(C3COC3)C2)c1 (centres unmarked) [Compound 408, 1-(3,5-difluorophenyl)-N-[3-methyl-5-[1-(oxetan-3-yl)-3-piperidyl]phenyl]-1,2,4-triazol-3-amine]
fold induction at 1 µM: 100 to 1000
fold induction at 10 µM: 10 to 100

Cc1cc(Nc2ncn(-c3ccc(F)cc3)n2)cc(C2COC2)c1 [Compound 409, 1-(4-fluorophenyl)-N-[3-methyl-5-(oxetan-3-yl)phenyl]-1,2,4-triazol-3-amine]
fold induction at 1 µM: 1000 to 10000
fold induction at 10 µM: 100 to 1000

Cc1cc(Nc2ncn(-c3ccccc3)n2)cc(OC2CCN(C3COC3)CC2)c1 [Compound 410, N-[3-methyl-5-[[1-(oxetan-3-yl)-4-piperidyl]oxy]phenyl]-1-phenyl-1,2,4-triazol-3-amine]
fold induction at 1 µM: 10 to 100
fold induction at 10 µM: ≤ 1

Cc1cc(Nc2ncn(-c3cccc(F)c3)n2)cc(C2CCCN(C3COC3)C2)c1 (centres unmarked) [Compound 411, 1-(3-fluorophenyl)-N-[3-methyl-5-[1-(oxetan-3-yl)-3-piperidyl]phenyl]-1,2,4-triazol-3-amine]
fold induction at 1 µM: 100 to 1000
fold induction at 10 µM: ≤ 1

CN1CCN(c2cc(Nc3ncn(-c4ccc(F)c(F)c4)n3)cc(C(F)(F)F)c2)CC1 [Compound 412, 1-(3,4-difluorophenyl)-N-[3-(4-methylpiperazin-1-yl)-5-(trifluoromethyl)phenyl]-1,2,4-triazol-3-amine]
fold induction at 1 µM: 1000 to 10000
fold induction at 10 µM: ≤ 1

Cc1cc(Nc2ncn(-c3cc(F)c(F)cc3F)n2)cc(N2CCN(C3COC3)CC2)c1 [Compound 413, N-[3-methyl-5-[4-(oxetan-3-yl)piperazin-1-yl]phenyl]-1-(2,4,5-trifluorophenyl)-1,2,4-triazol-3-amine]
fold induction at 1 µM: ≤ 1
fold induction at 10 µM: 100 to 1000
